Assay results published in ChEMBL document CHEMBL4184272, “Violacin A, a new chromanone produced by Streptomyces violaceoruber and its anti-inflammatory activity” (Bioorg Med Chem Lett, 2018).
Calls of active or inactive are those of the source. The calls are words filed in the database; no cut-off is given here.

What was measured:
RAW264.7 [1] = assay: Anti-inflammatory activity in mouse RAW264.7 cells assessed as inhibition of LPS-stimulated NO production by Griess assay; assay type: functional, cell-based
RAW264.7 [2] = assay: Anti-inflammatory activity in mouse RAW264.7 cells assessed as inhibition of LPS-stimulated NO production preincubated for 2 hrs followed by LPS stimulation measured after 18 hrs by Griess assay; assay type: functional, cell-based
RAW264.7 [3] = assay: Cytotoxicity against LPS-stimulated mouse RAW264.7 cells assessed as reduction in cell viability at 3.3 to 90 uM after 24 hrs by MTT assay; assay type: cell-based; details: raw264.7, 24 h
RAW264.7 [4] = assay: Inhibition of NF-kB signaling in mouse RAW264.7 cells assessed as reduction in LPS-stimulated IL-6 mRNA level preincubated for 2 hrs followed by LPS stimulation measured after 4 hrs by qRT-PCR assay; assay type: cell-based
RAW264.7 [5] = assay: Inhibition of NF-kB signaling in mouse RAW264.7 cells assessed as reduction in LPS-stimulated IL-1beta mRNA level preincubated for 2 hrs followed by LPS stimulation measured after 4 hrs by qRT-PCR assay; assay type: cell-based
RAW264.7 [6] = assay: Inhibition of NF-kB signaling in mouse RAW264.7 cells assessed as reduction in LPS-stimulated TNFalpha mRNA level preincubated for 2 hrs followed by LPS stimulation measured after 4 hrs by qRT-PCR assay; assay type: cell-based
RAW264.7 [7] = assay: Inhibition of NF-kB signaling in mouse RAW264.7 cells assessed as reduction in LPS-stimulated iNOS protein level at 3.3 to 30 uM preincubated for 2 hrs followed by LPS stimulation measured after 4 hrs by Western blot assay; assay type: cell-based
RAW264.7 [8] = assay: Inhibition of NF-kB signaling in mouse RAW264.7 cells assessed as reduction in LPS-stimulated iNOS mRNA level preincubated for 2 hrs followed by LPS stimulation measured after 24 hrs by qRT-PCR method; assay type: cell-based
[9] = molecular target: Transcription factor p65 (Mus musculus) (UniProt Q04207); assay: Inhibition of NF-kB p65 phosphorylation in mouse RAW264.7 cells at 3.3 to 30 uM preincubated for 2 hrs followed by LPS stimulation measured after 30 mins by Western blot method; assay type: cell-based
[10] = molecular target: Transcription factor p65 (Mus musculus) (UniProt Q04207); assay: Inhibition of NF-kB p65 signaling pathway in mouse RAW264.7 cells assessed as reduction in LPS-stimulated IkBalpha phosphorylation at 3.3 to 30 uM preincubated for 2 hrs followed by LPS stimulation measured after 30 mins by Western blot method; assay type: cell-based
[11] = molecular target: Transcription factor p65 (Mus musculus) (UniProt Q04207); assay: Inhibition of LPS-stimulated NF-kB p65 signaling pathway in mouse RAW264.7 cells assessed as IkBalpha accumulation at 3.3 to 30 uM preincubated for 2 hrs followed by LPS stimulation measured after 30 mins by Western blot method; assay type: cell-based
[12] = molecular target: Transcription factor p65 (Mus musculus) (UniProt Q04207); assay: Inhibition of LPS-stimulated NF-kB p65 signaling pathway in mouse RAW264.7 cells assessed as reduction in p65 nuclear translocation at 3.3 to 30 uM preincubated for 2 hrs followed by LPS stimulation measured after 30 mins by Western blot method; assay type: cell-based

Transcription factor p65 (Mus musculus), sequence (Q04207 whole entry): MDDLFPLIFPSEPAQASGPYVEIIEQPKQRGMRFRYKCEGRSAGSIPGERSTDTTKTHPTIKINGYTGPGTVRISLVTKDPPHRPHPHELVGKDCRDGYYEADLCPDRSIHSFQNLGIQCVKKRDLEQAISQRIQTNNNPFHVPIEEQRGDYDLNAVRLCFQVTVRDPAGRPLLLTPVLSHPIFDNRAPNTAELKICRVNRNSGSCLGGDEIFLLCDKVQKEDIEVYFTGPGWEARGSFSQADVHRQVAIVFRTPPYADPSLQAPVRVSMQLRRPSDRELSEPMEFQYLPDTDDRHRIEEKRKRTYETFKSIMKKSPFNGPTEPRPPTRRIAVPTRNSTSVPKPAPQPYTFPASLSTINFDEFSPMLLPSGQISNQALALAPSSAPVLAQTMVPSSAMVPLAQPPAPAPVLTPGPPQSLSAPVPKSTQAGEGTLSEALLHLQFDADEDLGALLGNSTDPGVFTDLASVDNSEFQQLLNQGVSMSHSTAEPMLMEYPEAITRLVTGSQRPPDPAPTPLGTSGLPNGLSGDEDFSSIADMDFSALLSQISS

IC50 (RAW264.7 [1]) | inhibition [9] | inhibition [10] | inhibition [11] | inhibition [12] | SMILES | inhibition (RAW264.7 [2]) | Activity (RAW264.7 [3]) | inhibition (RAW264.7 [4]) | inhibition (RAW264.7 [5]) | inhibition (RAW264.7 [6]) | inhibition (RAW264.7 [7]) | inhibition (RAW264.7 [8])
51.2 µM | – | – | – | – | CCCc1c(C(C)=O)c(O)cc2c1C(=O)C[C@H](O)C2 | – | – | – | – | – | – | –
– | Active | Active | Active | Active | CC(=O)CC1(O)CC(=O)c2c(C)cc(O)cc2O1 (configuration not stated) | Dose-dependent effect | Non-Toxic | Dose-dependent effect | Dose-dependent effect | Dose-dependent effect | Active | Dose-dependent effect
